Laboratory results taken from ChEMBL document CHEMBL1149003, “Studies on cytotoxic constituents in pericarps of Mallotus japonicus, Part II” (J Nat Prod, 1986).
Converted amounts (≈) assume the structure as drawn.

Assays:
KB = experiment: Cytotoxicity against human KB cells; assay type: functional; conditions: read-out: ED50 (the source's name)
L5178Y = experiment: Cytotoxicity against mouse L5178Y cells; assay type: functional; conditions: read-out: ED50 (the source's name)
Mus musculus [1] = experiment: Toxicity in ddY mouse xenografted with mouse solid Ehrlich carcinoma cells assessed as mortality at 7 mg/kg, ip qd for 3 to 8 days measured after 10 days; assay type: organism-based; design: dose 7 mg/kg, route intraperitoneal; conditions: in vivo, 240 h
Mus musculus [2] = experiment: Toxicity in ddY mouse xenografted with mouse solid Ehrlich carcinoma cells assessed as mortality at 20 mg/kg, ip qd for 3 to 8 days measured after 10 days; assay type: organism-based; design: dose 20 mg/kg, route intraperitoneal; conditions: in vivo, 240 h
[3] = Antitumor activity against mouse EAC cells xenografted in ddY mouse assessed as median survival time at 20 mg/kg, ip qd for 2 to 8 days; assay type: functional, Ehrlich; conditions: route intraperitoneal
[4] = Antitumor activity against mouse solid EAC cells xenografted in ddY mouse assessed as tumor weight at 20 mg/kg, ip qd for 3 to 8 days measured after 10 days; assay type: functional, Ehrlich; conditions: route intraperitoneal
[5] = Antitumor activity against mouse solid EAC cells xenografted in ddY mouse at 20 mg/kg, ip qd for 3 to 8 days measured after 10 days relative to control; assay type: functional, Ehrlich; conditions: route intraperitoneal
[6] = Antitumor activity against mouse solid EAC cells xenografted in ddY mouse at 7 mg/kg, ip qd for 3 to 8 days measured after 10 days relative to control; assay type: functional, Ehrlich; conditions: route intraperitoneal
[7] = Antitumor activity against mouse solid EAC cells xenografted in ddY mouse assessed as tumor weight at 7 mg/kg, ip qd for 3 to 8 days measured after 10 days; assay type: functional, Ehrlich; conditions: route intraperitoneal
[8] = Antitumor activity against mouse EAC cells xenografted in ddY mouse assessed as median survival time at 7 mg/kg, ip qd for 2 to 8 days; assay type: functional, Ehrlich; conditions: route intraperitoneal

Work on `C=C(C)C(O)Cc1c(O)c(Cc2c(O)c(C(C)=O)c(O)c(C)c2OC)c(O)c(C(C)=O)c1O` (racemic) yielded an EC50 (KB) of 1.22 µg/mL (≈ 2.65 µM) and an EC50 (L5178Y) of 2.45 µg/mL (≈ 5.32 µM).
With `COc1c(C)c(O)c(C(C)=O)c(O)c1Cc1c(O)c2c(c(C(C)=O)c1O)OC(C)(C)C(O)C2` (racemic) [MALLOTOCHROMANOL] the EC50 (KB) was over 100 µg/mL and the EC50 (L5178Y) was over 100 µg/mL.
With `C=C(C)C(O)Cc1c(O)c(Cc2c(O)c(C(C)=O)c(O)c(C)c2OC)c(O)c(C(=O)CCC)c1O` (racemic) [MALLOTOLERIN] the EC50 (KB) was 0.95 µg/mL (≈ 1.94 µM) and the EC50 (L5178Y) was 0.82 µg/mL (≈ 1.68 µM).
In the case of `COc1c(C)c(O)c(C(C)=O)c(O)c1Cc1c(O)c2c(c(C(C)=O)c1O)OC(C)(C)C=C2` [MALLOTOCHROMENE], the EC50 (KB) is reported as 2.1 µg/mL (≈ 4.75 µM) and the EC50 (L5178Y) is reported as 1.25 µg/mL (≈ 2.83 µM).
With `COc1c(C)c(O)c(C(C)=O)c(O)c1Cc1c(O)c(CC=C(C)C)c(O)c(C(C)=O)c1O` [MALLOTOJAPONIN] the Activity (Mus musculus [1]) was “Non-toxic”, the Activity (Mus musculus [2]) was “Non-toxic” and the MST [3] was 14 days. The Activity [4] was 0.59 g, the T/C [5] was 49.5% and the EC50 (KB) was 0.58 µg/mL (≈ 1.3 µM). The T/C [6] was 78.1%, the EC50 (L5178Y) was 0.74 µg/mL (≈ 1.66 µM) and the Activity [7] was 0.93 g. It also gave an MST [8] of 20 days.
